Assay results taken from US9988430B2, “Stable GLP-1 based GLP-1/glucagon receptor co-agonists” (Novo Nordisk A/S, priority 2014, dated 2018).
pEC50, pIC50: −log10 of the molar value. *1 amine or outer side, *2 acyl side, *3 side chain or, on linkers, in order; H or OH if unused. Where a SMILES comes first, the peptide text is derived from it. Bridges are numbered along the chain shown (N, C = ends). Roman numbers before positions name the chains, in order. Side-chain parts run from the residue outwards. [ ]: non-standard residue; d: D form. The star is where a group is joined. C18 diacid = O=C(O)CCCCCCCCCCCCCCCCC(=O)*; γGlu = O=C(O)[C@H](CCC(=O)[*:2])N[*:1]; Desaminohistidyl = O=C(CCc1c[nH]cn1)*; Ac4c = NC1(C(=O)O)CCC1; AEEA = NCCOCCOCC(=O)O; Aib = CC(C)(N)C(=O)O

Columns and labels:
human GLP-1 receptor = molecular target: T1, human GLP-1 receptor (Homo sapiens, UniProt P43220); experiment: Assay (I)(a): GLP-1 receptor potency, CRE luciferase reporter gene assay in BHK cells; assay type: cell-based; conditions: BHK cells expressing human GLP-1 receptor, read-out: EC50 GLP-1R
T1 construct: expressed in transfected cells; host or cells: membranes of BHK cells, parent line BHKTS13, clone FCW467-12A
T1 sequence (P43220 24-463): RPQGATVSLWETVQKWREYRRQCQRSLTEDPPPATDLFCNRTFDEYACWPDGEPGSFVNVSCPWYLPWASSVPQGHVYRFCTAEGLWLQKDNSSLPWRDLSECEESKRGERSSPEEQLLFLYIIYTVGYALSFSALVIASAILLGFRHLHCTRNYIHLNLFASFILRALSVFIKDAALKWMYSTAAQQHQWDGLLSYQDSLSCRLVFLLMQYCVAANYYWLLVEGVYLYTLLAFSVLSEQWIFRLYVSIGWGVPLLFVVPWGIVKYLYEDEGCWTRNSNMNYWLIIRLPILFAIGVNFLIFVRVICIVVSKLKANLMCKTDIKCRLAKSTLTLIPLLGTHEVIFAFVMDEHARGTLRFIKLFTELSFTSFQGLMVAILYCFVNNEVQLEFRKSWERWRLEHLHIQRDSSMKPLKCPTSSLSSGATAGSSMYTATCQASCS
How it was run: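 BHK cells (clone FCW467-12A/KZ10-1), 5×10EE3/well, exposed 3 h at 37° C to compound at 1×10EE-13 to 1×10EE-6 M final in medium with 2% ovalbumin and 0.2% Pluronic F-68. Luciferase luminescence read; EC50 (pM) from four-parameter fit.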

[1] = Assay (V): chemical stability assessment by RP-UPLC; assay type: physicochemical; conditions: 14 days at 37° C. in phosphate buffer (pH 7.3)
Experimental: Assay (V): Chemical Stability Assessment
The purpose of this assay is to assess the chemical stability of the GLP-1 derivatives of the present invention in aqueous solutions.
Chemical stability of GLP-1 derivatives may be investigated by RP-UPLC separation and UV detection. Lyophilized samples are dissolved in a 8 mM Phosphate buffer pH 8.6, followed by adjustment to pH 7.3 using HCl to a final concentration of 333 μM. Samples are incubated for 14 days at 5° C. and 37° C. followed by RP-UPLC analysis. Purity is defined as the area percentage of the main peak in relation to the total area of all integrated peaks in each chromatogram. Purity loss, also referred to herein as chemical degradation, after 14 days at 37° C. is determined as the difference in purity between the samples incubated at 5° C. and 37° C., divided by the purity of the sample after incubation for 14 days at 5° C.
RP-UPLC analysis is performed using a Waters BEH130 2.1 mm×150 mm, 1.7 μm column operated at 50° C. and a flow rate of 0.4 mL/min using a mobile phase system consisting of A: 0.05% TFA in MQ-water, and B: 0.05% TFA in Acetonitrile. UV-detection is performed at 215 nm. The typical gradient profile used for most of the samples is shown below.
For some individual derivatives eluting at substantially different retention times compared with the majority of derivatives, some adjustments to the gradient profile are made to better enable purity assessment comparison across samples.

human glucagon receptor = molecular target: T2, human glucagon receptor (Homo sapiens, UniProt P47871); experiment: Assay (II)(b): glucagon receptor binding, [125I]-glucagon displacement, SPA on BHK membranes; conditions: displacement of [125I]-glucagon, membranes with human glucagon receptor; read-out: IC50 GlucagonR
T2 construct: expressed in transfected cells; host or cells: membranes of BHK cells, clone BHK hGCGR A3*25
T2 sequence (P47871 26-477): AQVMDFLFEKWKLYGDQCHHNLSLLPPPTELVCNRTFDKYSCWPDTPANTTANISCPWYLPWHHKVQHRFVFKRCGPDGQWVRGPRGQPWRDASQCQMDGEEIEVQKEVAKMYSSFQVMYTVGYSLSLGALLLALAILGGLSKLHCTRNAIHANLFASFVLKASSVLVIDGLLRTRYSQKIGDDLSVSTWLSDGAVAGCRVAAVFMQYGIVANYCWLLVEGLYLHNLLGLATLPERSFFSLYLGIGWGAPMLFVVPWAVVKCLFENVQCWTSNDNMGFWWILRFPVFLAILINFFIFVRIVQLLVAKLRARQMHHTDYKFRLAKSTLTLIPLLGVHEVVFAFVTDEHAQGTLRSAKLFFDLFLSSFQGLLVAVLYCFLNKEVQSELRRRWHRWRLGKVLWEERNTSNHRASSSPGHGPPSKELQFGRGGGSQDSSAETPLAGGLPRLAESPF
Experimental: Assay (II): GLP-1 and Glucagon Receptor Binding The purpose of this assay is to test the in vitro receptor binding activity of the GLP-1 derivatives of the invention. (b) Glucagon Receptor Binding The glucagon receptor (glucagonR) binding activity is a measure of affinity of a derivative for the human glucagon receptor. The glucagon receptor binding of each derivative were determined with competitive binding, displacing [^125I]-glucagon bound to glucagon receptors expressed in cell membranes associated with wheat germ agglutinin (WGA) scintillation proximity assay (SPA) beads. Each derivative was added in a series of concentrations to isolated membranes comprising the human glucagon receptor and displacement of the labelled ligand was monitored. The receptor binding was reported as the concentration at which half of the labelled ligand is displaced from the receptor, the IC^50 value. The following chemicals were used in the assay: DMEM w Glutamax (Gibco 61965-026), Pen/strep (Invitrogen 15140-122), G418 (Invitrogen 10131-027), Versene (Gibco 15040), 1 M Hepes (Gibco 15630), PBS (Invitrogen 14190-094), fetal calf serum (Invitrogen 16140-071), MgCl2 (Merck 1.05832.1000), EDTA (Invitrogen 15575-038), CaCl2 (Sigma, C5080), Tween 20 (Amresco 0850C335), ovalbumin (Sigma A5503), SPA particles (wheat germ agglutinin (WGA) SPA beads, Perkin Elmer RPNQ0001), [125I]-glucagon (produced in-house), OptiPlate™-96 (Packard 6005290). HME buffer consisted of 25 mM HEPES, 2 mM MgCl2 and 1 mM EDTA, and pH was adjusted to 7.4. Assay buffer consisted of 50 mM HEPES supplemented with 5 mM MgCl2, 1 mM CaCl2, 0.02% Tween 20 and 0.1% Ovalbumin, and pH was adjusted to 7.4. The cells used in this assay (clone BHK hGCGR A3*25) were BHK cells stable transfected with an expression plasmid comprising the cDNA encoding the human glucagon receptor. The cells were grown at 5% CO2 in DMEM, 10% fetal calf serum, 1% Pen/Strep (Penicillin/Streptomycin) and 1.0 mg/ml of the selection marker G418. To make a membrane preparation the cells were grown to approximately 80% confluence. The cells were washed twice in phosphate-buffered saline and harvested. The cells were pelleted using a brief centrifugation and the cell pellet was kept on ice. Lyse the cells by adding approx. 5 ml HME buffer, mix by pipetting and snap freeze in liquid nitrogen. Thaw quickly and add HME buffer to 10 ml. The cell pellet was homogenised with an ULTRA-THURRAX dispersing instrument for 20-30 seconds. The homogenate was centrifuged at 20.000×G, 4° C. for 10 minutes. The pellet was resuspended (homogenised) in 1-2 ml HME buffer. The protein concentration was determined. The membranes were aliquoted and snapfrozen in liquid nitrogen and stored at minus 80° C. • 1. For the receptor binding assay 50 μl of the assay buffer was added to each well of an assay plate. • 2. Test compounds were serially diluted to give the following concentrations: 8×10EE-7 M, 8×10EE-8 M, 8×10EE-9 M, 8×10EE-10 M, 8×10EE-11 M, 8×10EE-12 M and 8×10EE-13 M. Twenty-five μl were added to appropriate wells in the assay plate. • 3. Cell membrane aliquots were thawed and diluted to their working concentration. Fifty μl were added to each well in the assay plate. • 4. WGA SPA beads were suspended in assay buffer at 20 mg/ml. The suspension was diluted to 10 mg/ml in assay buffer just prior to addition to the assay plate. Fifty μl were added to each well in the assay plate. • 5. The incubation was started by adding 25 μl of 480 pM solution of [125I]-glucagon to each well of the assay plate. A 25 μl aliquot was reserved for measuring total counts/well. • 6. The assay plate was incubated for 2 h at 25° C. • 7. The assay plate was centrifuged for 10 min at 1500 rpm. • 8. The assay plate was read in a Perkin Elmer TopCount NXT instrument. Calculations The data from the TopCount instrument were transferred to GraphPad Prism software. The software averaged the values for the replicates and performed a non-linear regression. […]

| pEC50 (human GLP-1 receptor) | Chemical stability: Chemical degradation over 14 days at 37° C. [1] [%] | pIC50 (human glucagon receptor) | SMILES |
| --- | --- | --- | --- |
| 11.52 | 1.6 | – | CC[C@H](C)[C@H](NC(=O)[C@H](Cc1ccccc1)NC(=O)[C@H](CCC(=O)O)NC(=O)[C@H](CCCNC(=N)N)NC(=O)[C@H](C)NC(=O)[C@H](C)NC(=O)[C@H](CCC(N)=O)NC(=O)[C@H](CCC(=O)O)NC(=O)[C@H](CCC(=O)O)NC(=O)[C@H](CC(C)C)NC(=O)[C@H](Cc1ccc(O)cc1)NC(=O)[C@H](CCCCN)NC(=O)[C@H](CO)NC(=O)[C@H](Cc1ccc(O)cc1)NC(=O)[C@H](CC(=O)O)NC(=O)[C@H](CO)NC(=O)[C@@H](NC(=O)[C@H](Cc1ccccc1)NC(=O)[C@@H](NC(=O)CNC(=O)[C@H](Cc1c[nH]cn1)NC(=O)C1(NC(=O)CCc2c[nH]cn2)CCC1)[C@@H](C)O)[C@@H](C)O)C(=O)N[C@@H](C)C(=O)N[C@@H](Cc1c[nH]c2ccccc12)C(=O)N[C@@H](CC(C)C)C(=O)N[C@@H](CC(C)C)C(=O)N[C@@H](CCCCN)C(=O)N[C@@H](CCCCNC(=O)CC[C@H](NC(=O)COCCOCCNC(=O)CC[C@H](NC(=O)COCCOCCNC(=O)CC[C@H](NC(=O)COCCOCCNC(=O)CC[C@H](NC(=O)CC[C@H](NC(=O)CCCCCCCCCCCCCCCCC(=O)O)C(=O)O)C(=O)O)C(=O)O)C(=O)O)C(=O)O)C(N)=O [Example 21, N^ε35-[(4S)-4-carboxy-4-[[2-[2-[2-[[(4S)-4-carboxy-4-[[2-[2-[2-[[(4S)-4-carboxy-4-[[2-[2-[2-[[(4S)-4-carboxy-4-[[(4S)-4-carboxy-4-(17-carboxyheptadecanoylamino)butanoyl]amino]butanoyl]amino]ethoxy]ethoxy]acetyl]amino]butanoyl]amino]ethoxy]ethoxy]acetyl]amino]butanoyl]amino]ethoxy]ethoxy]acetyl]amino]butanoyl]-[Imp7,Acb8,His9,Tyr16,Lys18,Glu22,Arg26,Leu33,Lys35]-GLP-1-(7-35)-peptide amide] (Desaminohistidyl-[Ac4c]HGTFTSDYSKYLEEQAAREFIAWLLKK([γGlu-AEEA-γGlu-AEEA-γGlu-AEEA-γGlu-γGlu-C18 diacid])-NH2) |
| 11.10 | 2.2 | – | CC[C@H](C)[C@H](NC(=O)[C@H](Cc1ccccc1)NC(=O)[C@H](CCC(=O)O)NC(=O)[C@H](CCCNC(=N)N)NC(=O)[C@H](C)NC(=O)[C@H](C)NC(=O)[C@H](CCCNC(=N)N)NC(=O)[C@H](CCCNC(=N)N)NC(=O)[C@H](CCC(=O)O)NC(=O)[C@H](CC(C)C)NC(=O)[C@H](Cc1ccc(O)cc1)NC(=O)[C@H](CCCCN)NC(=O)[C@H](CO)NC(=O)[C@H](Cc1ccc(O)cc1)NC(=O)[C@H](CC(=O)O)NC(=O)[C@H](CO)NC(=O)[C@@H](NC(=O)[C@H](Cc1ccccc1)NC(=O)[C@@H](NC(=O)CNC(=O)[C@H](Cc1c[nH]cn1)NC(=O)C1(NC(=O)CCc2c[nH]cn2)CCC1)[C@@H](C)O)[C@@H](C)O)C(=O)N[C@@H](C)C(=O)N[C@@H](Cc1c[nH]c2ccccc12)C(=O)N[C@@H](CC(C)C)C(=O)N[C@@H](CC(C)C)C(=O)N[C@@H](CCCCN)C(=O)N[C@@H](CCCCNC(=O)CC[C@H](NC(=O)COCCOCCNC(=O)CC[C@H](NC(=O)COCCOCCNC(=O)CC[C@H](NC(=O)COCCOCCNC(=O)CC[C@H](NC(=O)CC[C@H](NC(=O)CCCCCCCCCCCCCCCCC(=O)O)C(=O)O)C(=O)O)C(=O)O)C(=O)O)C(=O)O)C(N)=O [Example 24, N^ε35-[(4S)-4-carboxy-4-[[2-[2-[2-[[(4S)-4-carboxy-4-[[2-[2-[2-[[(4S)-4-carboxy-4-[[2-[2-[2-[[(4S)-4-carboxy-4-[[(4S)-4-carboxy-4-(17-carboxyheptadecanoylamino)butanoyl]amino]butanoyl]amino]ethoxy]ethoxy]acetyl]amino]butanoyl]amino]ethoxy]ethoxy]acetyl]amino]butanoyl]amino]ethoxy]ethoxy]acetyl]amino]butanoyl]-[Imp7,Acb8,His9,Tyr16,Lys18,Arg22,Arg23,Arg26, Leu33, Lys35]-GLP-1-(7-35)-peptide amide] (Desaminohistidyl-[Ac4c]HGTFTSDYSKYLERRAAREFIAWLLKK([γGlu-AEEA-γGlu-AEEA-γGlu-AEEA-γGlu-γGlu-C18 diacid])-NH2) |
| – | – | 7.73 | CC[C@H](C)[C@H](NC(=O)[C@H](Cc1ccccc1)NC(=O)[C@H](CCC(=O)O)NC(=O)[C@H](CCCNC(=N)N)NC(=O)[C@H](C)NC(=O)[C@H](C)NC(=O)[C@H](CCC(N)=O)NC(=O)[C@H](CCC(=O)O)NC(=O)[C@H](CCC(=O)O)NC(=O)[C@H](CC(C)C)NC(=O)[C@H](Cc1ccc(O)cc1)NC(=O)[C@H](CCCCN)NC(=O)[C@H](CO)NC(=O)[C@@H](NC(=O)[C@H](CC(=O)O)NC(=O)[C@H](CO)NC(=O)[C@@H](NC(=O)[C@H](Cc1ccccc1)NC(=O)[C@@H](NC(=O)CNC(=O)[C@H](Cc1c[nH]cn1)NC(=O)C(C)(C)NC(=O)CCc1c[nH]cn1)[C@@H](C)O)[C@@H](C)O)C(C)C)C(=O)N[C@@H](C)C(=O)N[C@@H](Cc1c[nH]c2ccccc12)C(=O)N[C@@H](CC(C)C)C(=O)N[C@@H](CC(C)C)C(=O)N[C@@H](CCCCNC(=O)CNC(=O)[C@H](CO)NC(=O)[C@H](CCC(=O)O)NC(=O)CNC(=O)[C@H](CO)NC(=O)CC[C@H](NC(=O)CC[C@H](NC(=O)CCCCCCCCCCCCCCCCC(=O)O)C(=O)O)C(=O)O)C(=O)N[C@H](C(=O)O)[C@@H](C)O [Example 25, N^ε34-[2-[[(2S)-2-[[(2S)-4-carboxy-2-[[2-[[(2S)-2-[[(4S)-4-carboxy-4-[[(4S)-4-carboxy-4-(17-carboxyheptadecanoylamino)butanoyl]amino]butanoyl]amino]-3-hydroxypropanoyl]amino]acetyl]amino]butanoyl]amino]-3-hydroxypropanoyl]amino]acetyl]-[Imp7,Aib8,His9,Lys18,Glu22,Arg26,Leu33,Thr35]-GLP-1-(7-35)-peptide] (I: Desaminohistidyl-[Aib]HGTFTSDVSKYLEEQAAREFIAWLLKT-OH / II: {C18 diacid-γGlu-γGlu}-SGESG; amide I:27-II:C) |
